Assay results: article PMC6514996, “Discovery of Potent and Selective Halogen-Substituted Imidazole-Thiosemicarbazides for Inhibition of Toxoplasma gondii Growth In Vitro via Structure-Based Design” (Molecules, 2019)
Converted amounts (≈) assume the structure as drawn.

Columns and labels:
[1] = Cytotoxicity against L929 cells, MTT cell viability assay (ISO 10993-5:2009(E)); format: cell-based; settings: mouse, L929 mouse fibroblast cells; for viability at 24 h, 5 µg/mL / viability at 24 h, 25 µg/mL / viability at 24 h, 50 µg/mL / viability at 24 h, 125 µg/mL / viability at 24 h, 250 µg/mL / viability at 24 h, 500 µg/mL / viability at 24 h, 1000 µg/mL: read-out: viability of L929 cells (% of viable cells); for CC50 at 24 h: 50% cell proliferation inhibition, L929 cells
Source text: Since T. gondii is an obligate intracellular parasite that requires invasion of mammalian host cells to proliferate, compounds that inhibit parasite growth might be toxic to host cells as well. Therefore, as an initial indicator for host cell toxicity, we firstly evaluated compounds 5–16 for their ability to inhibit the growth of mouse fibroblast (L929) cells line according to the international standards: ISO 10993-5:2009(E).
To calculate the reduction of viability compared to the untreated blank the equation was used: viability (%) = 100% × sample OD570 (the mean value of the measured optical density of the treated cells)/blank OD570 (the mean value of the measured optical density of the untreated cells). CC50—represents the concentration of tested compounds that was required for a 50% cell proliferation inhibition in vitro. The effect of the tested compounds on the cell lines was measured using MTT assay according to the international standard: ISO 10993-5:2009(E). CC50 values were determined based on the plotted curves using GraphPad Prism program (version 8.0.1).
Cell culture: the L929 mouse fibroblast (ATTC® CCL-1™) was routinely cultured in IMDM (Iscove’s Modified Dulbecco Medium, Biowest, Nuaille, France), supplemented with 10% HIFBS, 100 U/mL penicillin and 100 μg/mL streptomycin. Cells were trypsinized twice a week and seeded at a density of 1 × 10^6 per T25 cell culture flask and incubated for 24–48 h in a 37 °C and 10% CO2 to achieve a confluent monolayer.
Cell viability assay: Assays were performed according to international standards: ISO 10993-5:2009(E), Biological evaluation of medical devices, Part 5: Tests for in vitro cytotoxicity. Cell viability were evaluated using the tetrazolium salt [3-(4,5-dimethylthiazol-2-yl)-2,5-diphenyltetrazolium bromide] (Sigma) and mouse fibroblasts L929 cells. For this assay we used only the culture medium, RPMI 1640, without phenol red (Biowest) supplemented with 10% HIFBS, 2 mM L-glutamine (Sigma), 100 U/mL penicillin, 100 μg/mL streptomycin. Shortly after, a 1 × 10^4/well of L929 cells were placed into 96-well plates and incubated in 37 °C and 10% CO2. Afterwards, an old culture medium was replaced by 100 μL of compounds and drugs dilutions in culture medium and the cells were treated for 24 h. Moreover, cells were treated with a 4.0–0.03% concentration of DMSO and 1M NaOH as a compound and drugs solvent (data not shown). Then, 50 μL of 1 mg/mL of MTT solution in RPMI 1640 without phenol red was added to each well and incubated 2h (37 °C, 10% CO2). Next, cell culture medium was aspirated cautiously and 150 μL of DMSO was added to each well, the plates were gently mixed. Then 25 μL 0.1M glycine buffer (pH = 10.5) (Sigma) was added. The optical density at 570 nm on the ELISA reader (Multiskan EX, Labsystems, Vienna, VA, USA), was read. The results were expressed as a percentage of viability compared to untreated cells. All experiments were performed in triplicate. For comparison reasons, two compounds known from our previous studies (6 and 9) were included in the bioassay performed for compounds 5, 7, 8, 9–16.

[2] = Lipophilicity by HPLC (logkw extrapolation, OECD guideline); format: physicochemical; settings: Phenomenex Synergi 4 µm Polar-RP column, methanol:water, calibration with seven standards
Method: HPLC experiments were performed using a chromatograph equipped with an Elite LaChrom L-2130 gradient pump, L-2455 DAD detector, L-2300 column oven, and L-2200 autosampler (Hitachi-Merck, Darmstadt, Germany). The tested samples were applied into the Phenomenex Synergi 4 µm Polar-RP chromatographic column (Phenomenex, Torrance, CA, USA) (150 mm length, 4.6 mm i.d.). Mobile phases were degassed using a built-in membrane degasser.
Chromatographic analysis: 5 µL of each sample (0.1% methanolic solutions) was applied into the chromatographic column and chromatograms were developed at a flow rate of 1.0 mL min^−1 in the isocratic mode using various concentrations of methanol in the binary polar mobile phase: methanol:water (40:60, 45:55, 50:50, 55:45, 60:40, 65:35, and 70:30 (v/v)) Chromatograms were detected at 254 nm. All experiments were repeated in triplicate, and the final results were their arithmetic mean. Dead time was measured for uracil (Calbiochem—Merck, Darmstadt, Germany). All the experiments were performed at ambient temperature.
The chromatographic lipophilicity parameter (logkw) for 5–16 was obtained by the extrapolation of the retention parameter logk to pure water, according to the equation: logk = logkw − S × φ(1) where logkw is the value of the retention factor of a substance in pure water, S is the slope of the regression curve, and φ is the concentration (v/v) of methanol in the mobile phase.
Subsequently, logPHPLC parameters for 5–16 were calculated according to OECD guidelines, based on the equation obtained for seven standards with known lipohilicity parameters (logPo/w): logPo/w = 1.0239(± 0.03)·logkw − 0.1541(± 0.08); n = 7; r = 0.9976; se = 0.08; F = 1047.8(2)

[3] = tested on: Toxoplasma gondii RH strain tachyzoites (ATCC PRA 310); experiment: Influence on T. gondii proliferation in Hs27 cells, [3H]-uracil incorporation assay; format: cell-based; settings: for IC50: Toxoplasma gondii, HS27, 50% inhibition of T. gondii RH proliferation in vitro, Hs27 host cells, [3H]-uracil incorporation; for SR (selectivity ratio): ratio of CC50 (L929) to IC50 (T. gondii)
[4] = tested on: Toxoplasma gondii tachyzoites; design: method as in PMID 30744161; settings: ref [19], cited from earlier work; for IC50: inhibition of T. gondii tachyzoite proliferation, previous study; for SR (selectivity ratio): ratio of CC50 to IC50, previous study

chromatographic logP [2] | melting point | SMILES | viability at 24 h, 5 µg/mL [1] | viability at 24 h, 25 µg/mL [1] | viability at 24 h, 50 µg/mL [1] | viability at 24 h, 125 µg/mL [1] | viability at 24 h, 250 µg/mL [1] | viability at 24 h, 500 µg/mL [1] | viability at 24 h, 1000 µg/mL [1] | CC50 at 24 h [1] | IC50 [3] | SR (selectivity ratio) [3] | IC50 [4] | SR (selectivity ratio) [4]
2.99 |  | Cc1nc[nH]c1C(=O)NNC(=S)Nc1cccc(F)c1 [Compound 6] | 96.3% | 97.3% | 75.4% | 64.8% | 62.4% | 52.3% | 35.4% | 885 µg/mL (≈ 3020 µM) | ≥ 69 µg/mL | 7.79 |  | 
3.17 | 217 to 219 °C | Cc1nc[nH]c1C(=O)NNC(=S)Nc1ccccc1Cl [Compound 8, 4-(2-Chlorophenyl)-1-(4-methylimidazol-5-oyl)thiosemicarbazide] | 89.9% | 86.3% | 78.5% | 69.4% | 64.8% | 57.1% | 39.5% | 630 µg/mL (≈ 2030 µM) | 35.6 µg/mL (≈ 115 µM) | 17.69 |  | 
3.23 |  | Cc1nc[nH]c1C(=O)NNC(=S)Nc1ccccc1I [Compound 14, 4-(2-Iodophenyl)-1-(4-methylimidazol-5-oyl)thiosemicarbazide] | 95.2% | 92.8% | 83.7% | 65.4% | 44.5% | 26.1% | 25% | 199 µg/mL (≈ 496 µM) | 20.3 µg/mL (≈ 50.6 µM) |  |  | 
2.8 |  | Cc1nc[nH]c1C(=O)NNC(=S)Nc1ccccc1F [Compound 5] | 98.1% | 97.3% | 74.8% | 87% | 69.3% | 64.1% | 45.8% | 455 µg/mL (≈ 1550 µM) | ≥ 69 µg/mL | 6.61 |  | 
3.51 |  | Cc1nc[nH]c1C(=O)NNC(=S)Nc1cccc(Cl)c1 [Compound 9] | 93.9% | 88.5% | 75.3% | 64.7% | 56.7% | 30.2% | 8.47% | 273 µg/mL (≈ 881 µM) | 24.1 µg/mL (≈ 78 µM) | 11.30 |  | 
3.44 |  | Cc1nc[nH]c1C(=O)NNC(=S)Nc1ccc(Cl)cc1 [Compound 10] | 103% | 96.3% | 70.3% | 63.6% | 56.6% | 23.6% | 13.6% | 231 µg/mL (≈ 746 µM) | ≥ 69 µg/mL | 3.15 |  | 

The remaining lines, values behind:

SMILES | chromatographic logP [2] | melting point | viability at 24 h, 5 µg/mL [1] | viability at 24 h, 25 µg/mL [1] | viability at 24 h, 50 µg/mL [1] | viability at 24 h, 125 µg/mL [1] | viability at 24 h, 250 µg/mL [1] | viability at 24 h, 500 µg/mL [1] | viability at 24 h, 1000 µg/mL [1] | CC50 at 24 h [1] | IC50 [3] | SR (selectivity ratio) [3] | IC50 [4] | SR (selectivity ratio) [4]
Cc1nc[nH]c1C(=O)NNC(=S)Nc1ccc(F)cc1 [Compound 7] | 2.8 |  | 103% | 103% | 89.2% | 83.1% | 69.9% | 61.4% | 48.7% | 977 µg/mL (≈ 3330 µM) | ≥ 69 µg/mL | 8.86 |  | 
Cc1nc[nH]c1C(=O)NNC(=S)Nc1ccc([N+](=O)[O-])cc1 [Compound 2] |  |  |  |  |  |  |  |  |  |  |  |  | 21.62 µg/mL (≈ 67.5 µM) | 16 fold
Cc1nc[nH]c1C(=O)NNC(=S)Nc1cccc(Br)c1 [Compound 12, 4-(3-Bromophenyl)-1-(4-methylimidazol-5-oyl)thiosemicarbazide] | 3.71 |  | 95.3% | 89% | 74.4% | 65.7% | 56.8% | 20.2% | 7.52% | 238 µg/mL (≈ 671 µM) | 15.6 µg/mL (≈ 44.2 µM) |  |  | 
Nc1ccc(S(=O)(=O)Nc2ncccn2)cc1 [sulfadiazine, 4-amino-N-(2-pyrimidinyl)benzenesulfonamide, reference compound] |  |  |  |  |  |  |  |  |  | > 2500 µg/mL | > 2500 µg/mL | <0.92 | ~ 2721.45 µg/mL | 
COc1cc(Cc2cnc(N)nc2N)cc(OC)c1OC [trimethoprim, 2,4-diamino-5-(3,4,5-trimethoxybenzyl)pyrimidine, reference compound] |  |  |  |  |  |  |  |  |  | > 32 µg/mL | 12.1 µg/mL (≈ 41.8 µM) | >2.64 |  | 
Cc1nc[nH]c1C(=O)NNC(=S)Nc1ccc(Br)cc1 [Compound 13, 4-(4-Bromophenyl)-1-(4-methylimidazol-5-oyl)thiosemicarbazide] | 3.64 |  | 93.5% | 82% | 64.1% | 56.6% | 51.1% | 42.1% | 30.8% | 224 µg/mL (≈ 631 µM) | 14.6 µg/mL (≈ 41.1 µM) |  |  | 
Cc1ccc(NC(=S)NNC(=O)c2[nH]cnc2C)cc1Cl [Compound 4] |  |  |  |  |  |  |  |  |  |  |  |  | 18.62 µg/mL (≈ 57.5 µM) | 4 fold
Cc1nc[nH]c1C(=O)NNC(=S)Nc1cccc([N+](=O)[O-])c1 [Compound 1] |  |  |  |  |  |  |  |  |  |  |  |  | 14.78 µg/mL (≈ 46.1 µM) | 18 fold
Cc1nc[nH]c1C(=O)NNC(=S)Nc1cccc(Cl)c1 [Compound 3] |  |  |  |  |  |  |  |  |  |  |  |  | 25.70 µg/mL (≈ 83 µM) | 10 fold
